Experimental data from US20110217293A1, “Uses of morelloflavone” (priority 2008, published 2011).
Where “and” joins values, the source holds several entries; their conditions need not be identical. Identical values can stand only once. Entries after “also recorded” stand apart in the source; their conditions may differ.

Tests used:
[1] = system: vascular smooth muscle cells; test: Invasion assay (modified Boyden chamber); assay type: cell-based, mouse; conditions: 1 mM morelloflavone, 8-hour incubation
Experimental: Mouse vascular smooth muscle cells, isolated as described (13), were maintained in 231 media (Cascade Biologics, Portland, Oreg.) supplemented with SMGS (Cascade Biologics) in a humidified incubator at 37° C. with 5% CO2. Cells from passages 4-9 were used in all experiments. All experiments were performed in subconfluent, unsynchronized cells growing in SMGS except for the lamellipodium formation assay.
The lower chambers of the ChemoTx® Disposable Chemotaxis System (NeuroProbe, Gaithersburg, Md.) were filled with […] of SMGS diluted in 231 medium at the appropriate concentrations (0-10%). A filter membrane ([…] pore size) was positioned over the lower wells, and 1×10^4 vascular smooth muscle cells suspended in […] 231 medium (without morelloflavone) were placed on the test sites within circular hydrophobic masks on the upper side of the filter plate (n=5 each). […] After additional 8-hour incubation, cells on the upper surface of the membrane, i.e., cells that had not migrated, were scraped off by Q-tips, and cells that had migrated to the lower surface were fixed and stained by hematoxylin solution and counted. Migrated cell 6 numbers were calculated as the number of cells migrated per 8.0 mm^2 test site surface area.

[2] = Body weight in carotid artery injury study; assay type: in vivo, mouse; conditions: apoE−/− mice
Experimental: The carotid artery injury assay was performed as described by Kuhel (16). Male apoE−/− mice were obtained from Jackson Laboratory (Bar Harbor, Me.) and maintained on a 12 hour light/dark cycle. All animal experimentation protocols were performed under institutional guidelines of animal welfare, in accordance with NIH guidelines. Mice were fed either normal rodent chow diet (5001, LabDiet) (n=10) or normal chow diet containing 0.15% morelloflavone (w/w) (n=9). This diet corresponded to 200 mg/kg morelloflavone if a 30 gm mouse consumes 4 grams of chow. Mice were placed on these diets for 7 days before they underwent carotid artery denudation by the insertion of an epoxy resin (Epon) probe as described (16).

ERK = test: Western blot, phosphorylation of ERK; assay type: cell-based, mouse; conditions: low concentrations (0.1 & 1 mM)
Experimental: To assess the phosphorlyation status of ERK, […] of whole cell lysates was loaded onto SDS-PAGE, and Western blot analysis was done using anti-p-ERK (Santa Cruz; E-4; sc-7383) and anti-ERK (Santa Cruz; K-23; sc-94) antibodies. To detect active RhoA, Rac1 and Cdc42, generated GST-tagged RhoA binding domain of Rhotekin protein (GST-Rhotekin-RBD) and GST-tagged p21-binding domain of p21-activated kinase 1 (PAK1)(GST-PAK1-PBD) were first generated. Briefly, E. coli BL21 cells transformed with pGEX4T-PAK1-PBD or pGEX4T-Rh,otekin-RBD were grown at 37° C. and expression of recombinant protein was induced by addition of 0.1 mM IPTG for 3 hours. Cells were resuspended in lysis buffer (50 mM Tris-HCl, pH 8.0, 10% glycerol, 20% sucrose, 2 mM DTT, 1 mg/ml leupeptin, 1 mg/ml pepstatin, and 1 mg/ml aprotinin), sonicated, and centrifuged at 4° C. for 30 min at 45,000 g. The supernatant was incubated with glutathione sepharose 4B beads (GE-Amersham, Piscataway, N.J.) for 1 hour at 4° C., and then washed 3 times in lysis buffer. Using these GST-proteins, GTPase activation assays were performed as described.

[3] = Serum morelloflavone level by HPLC; assay type: in vivo, mouse; conditions: treated apoE−/− mice, oral 0.15% w/w diet, at sacrifice
Experimental: Measurements were performed at a magnification of 200 using a Scion Image analysis computer program (Frederick, Md.). Data were obtained from the first 2 levels where endothelial denudation occurred. For each artery, the luminal area, area inside the internal elastic lamina (IELA), and the area encircled by external elastic lamina-IELA were measured. The intimal area (IA) was calculated as the IELA minus luminal area. For the determination of serum morelloflavone levels, animal sera were first digested by proteinase K in the presence of 0.01% SDS. Morelloflavone was then extracted into ethyl acetate and lyophilized.
The quantification of morelloflavone was performed by HPLC as described with following modifications. The pure morelloflavone was diluted to varying concentrations ([…]), aliquoted into multiple tubes, and lyophilized. The samples were dissolved in […] of 25% acetonitrile/0.55% acetic acid 10 of which […] were injected into a Vydac C-18 reversed phase HPLC column (Grace Davison Discovery Sciences, Deerfield, Ill.) in an Agilent 1100 HPLC system (San Jose, Calif.). […] The limit of detection (LOD) is defined as the concentration of morelloflavone that yielded a signal to noise of 2:1, and was calculated at 1.06 mM, from the 20 mM standard peak (signal to noise=37.6:1). […]

c-Src = test: Western blot, phosphorylation of c-Src; assay type: cell-based, mouse; conditions: low concentrations (0.1 & 1 mM), 5 min
Experimental: For the evaluation of phosphorylated FAK and c-Src, Western blot analyses were performed as described (15). Briefly, vascular smooth muscle cells were seeded on 10-cm dishes, treated with various concentrations of morelloflavone for 5 min, and harvested into RIPA buffer with protease inhibitor cocktails. Cleared cell lysates ([…] of protein) were incubated with anti-FAK or anti-c-Src antibodies at 4° C. for 1 hr in a final volume of 1 mL RIPA buffer, and incubated for another 1 hr with protein A/G agarose beads (Santa Cruz; SCBT sc-2003). Immunoprecipitated proteins were eluted into SDS-loading 7 buffer and subjected to 12% SDS-PAGE and immunoblotting using anti-FAK (Santa Cruz; A-17; sc-557) and anti-c-Src (Santa Cruz; SRC-2; sc-18) antibodies for total FAK and c-Src, respectively, and anti-phosphotyrosine antibody (Santa Cruz; PY-20; sc-508) for phosphorylated FAK and c-Src. Densitometric analyses were performed using Adobe Photoshop (Adobe Systems Incorporated, San Jose, Calif.).

O=C1c2c(O)cc(O)cc2O[C@H](c2ccc(O)cc2)[C@H]1c1c(O)cc(O)c2c(=O)cc(-c3ccc(O)c(O)c3)oc12 [morelloflavone, 5,7, 4′, 5″, 7″, 3″, 4″-heptahydroxy-[3,8″]-flavonylflavanone]
effect on vascular smooth muscle cell migration/invasion towards SMGS [1]: significantly blocked; also recorded: blocks | Body weight ([2]; at the time of sacrifice): 23.3 ± 1.5 g | Body weight ([2]; before injury): 24.0 ± 2.0 g | phosphorylation of ERK (ERK): inhibited; also recorded: robustly decreased phosphorylation; also recorded: blocks | serum concentration of morelloflavone [3]: 1.37 µM and 1.4 µM | phosphorylation of c-Src (c-Src): inhibited; also recorded: robustly decreased phosphorylation; also recorded: blocks
